Measured values as given in ChEMBL document CHEMBL1156829 (Proc Natl Acad Sci U S A, 2008).

Tests used:
[1] = test system: Plasmodium falciparum; assay: NOVARTIS: Inhibition of Plasmodium falciparum W2 (drug-resistant) proliferation in erythrocyte-based infection assay; format: functional, organism-based; conditions: Plasmodium falciparum, W2; read-out: EC50
[2] = NOVARTIS: Cytotoxicity against human hepatocellular carcinoma cell line (Huh7); format: toxicity, cell-based, Huh-7; conditions: Huh7 cells (hepatocellular carcinoma cell line)
[3] = test system: Plasmodium falciparum; assay: NOVARTIS: Inhibition of Plasmodium falciparum 3D7 (drug-susceptible) proliferation in erythrocyte-based infection assay; format: functional, organism-based; conditions: Plasmodium falciparum, 3D7

COc1cc(C(c2c(C)n(C)n(-c3ccccc3)c2=O)c2c(C)n(C)n(-c3ccccc3)c2=O)cc(Cl)c1OCc1ccccc1
EC50 [1]: 456 nM | CC50 [2]: 38300 nM | EC50 [3]: 2700 nM

COc1ccc(CN(Cc2cc3cccc(C)c3nc2N2CCCC(O)C2)C(=O)c2ccc(OC)c(OC)c2)cc1 (stereo not given)
EC50 [1]: 1220 nM | CC50 [2]: > 100000 nM | EC50 [3]: 1420 nM

COc1ccc(CN(Cc2ccc(C(C)C)cc2)S(=O)(=O)c2ccc(S(=O)(=O)N3CCN(c4ccccc4F)CC3)cc2)cc1
EC50 [1]: 1210 nM | CC50 [2]: > 100000 nM | EC50 [3]: > 12500 nM

Cc1cc(Nc2ccccc2)nc(Nc2ccccc2)n1
EC50 [1]: 248 nM | CC50 [2]: 20000 nM | EC50 [3]: 259 nM

Brc1ccc(C=NNc2nc3ccccc3[nH]2)cc1
EC50 [1]: 674 nM | CC50 [2]: 55800 nM | EC50 [3]: 226 nM

CC(C)CN1C(=O)c2ccccc2C(C(=O)Nc2ccc(C(C)C)cc2)C1c1cccs1 (stereo not given)
EC50 [1]: 1200 nM | CC50 [2]: > 100000 nM | EC50 [3]: 2410 nM

CC[n+]1c(/C=C/c2ccc(C)cc2)ccc2ccccc21
EC50 [1]: 119 nM | CC50 [2]: > 10000 nM | EC50 [3]: 97.4 nM

CC(=O)N(C1=C(N(C)C)C(=O)c2ccccc2C1=O)c1ccc(F)cc1
EC50 [1]: 32 nM | CC50 [2]: 2680 nM | EC50 [3]: 24.4 nM

COc1ccc(OC)c(CN2CCC3(CC2)CC3C(=O)NCCc2ccccc2OC)c1 (stereo not given)
EC50 [1]: 1190 nM | CC50 [2]: > 100000 nM | EC50 [3]: > 3170 nM

Cc1ccc(CNC(=O)C2CNCC2c2ccc(C(F)(F)F)cc2)cc1 (stereo not given)
EC50 [1]: 121 nM | CC50 [2]: > 10000 nM | EC50 [3]: 243 nM

c1ccc(CN2CCC(NCc3c[nH]c4ccccc34)CC2)cc1
EC50 [1]: 120 nM | CC50 [2]: > 10000 nM | EC50 [3]: 208 nM

CC(C)C(=O)NC(Nc1cccc([N+](=O)[O-])c1)C(Cl)(Cl)Cl (stereo not given)
EC50 [1]: 1200 nM | CC50 [2]: > 100000 nM | EC50 [3]: 1560 nM

O=C(CN1CCCC1)N1N=C(c2cccs2)CC1c1ccc(F)cc1 (stereo not given)
EC50 [1]: 1200 nM | CC50 [2]: > 100000 nM | EC50 [3]: > 12500 nM

CN1C=C(c2ccc3ccccc3n2)C(c2c[nH]c3ccccc23)c2ccccc21 (stereo not given)
EC50 [1]: 1210 nM | CC50 [2]: > 100000 nM | EC50 [3]: 1140 nM

COc1cc2nc(NCCCOC(C)C)n3nc(-c4ccccc4)nc3c2cc1OC
EC50 [1]: 1210 nM | CC50 [2]: > 100000 nM | EC50 [3]: 793 nM

Nc1ccc2nc3ccc(N)cc3[s+]c2c1
EC50 [1]: 143 nM | CC50 [2]: 11600 nM | EC50 [3]: 85.7 nM

CCOc1ccc(C(=O)C(C)[n+]2cc(-c3ccc(Cl)cc3)n3c2CCC3)cc1 (stereo not given)
EC50 [1]: 976 nM | CC50 [2]: > 78300 nM | EC50 [3]: 1500 nM

O=c1[nH]c(SCC(O)c2ccc(Cl)c(Cl)c2)nc2sc3ccccc3c12 (stereo not given)
EC50 [1]: 124 nM | CC50 [2]: > 10000 nM | EC50 [3]: 663 nM

CN1CCN=C1c1ccc(NC(=O)Nc2ccc(NC(=O)Nc3ccc(C4=NCCN4C)cc3)cc2)cc1
EC50 [1]: 124 nM | CC50 [2]: > 10000 nM | EC50 [3]: 158 nM

Cc1ccc(-c2cc(N3CCCC3CO)n3nccc3n2)cc1 (stereo not given)
EC50 [1]: 1250 nM | CC50 [2]: > 100000 nM | EC50 [3]: 1140 nM

COc1ccc(CNCCN2CCN(c3ccc(C)cc3)C[C@@H]2c2ccccc2)cc1
EC50 [1]: 125 nM | CC50 [2]: > 10000 nM | EC50 [3]: 909 nM

COc1cc(OC)cc(C(=O)NCC2Cc3cc(Cl)cc(-c4ccncc4)c3O2)c1 (stereo not given)
EC50 [1]: 537 nM | CC50 [2]: 44100 nM | EC50 [3]: 368 nM

N#Cc1cccc(C=CC(=O)O)c1
EC50 [1]: 1220 nM | CC50 [2]: > 100000 nM | EC50 [3]: > 12500 nM

Oc1ccc(-c2ccc3c(c2)OCO3)cc1CNC1CCN(Cc2ccccc2)CC1
EC50 [1]: 364 nM | CC50 [2]: 29900 nM | EC50 [3]: 598 nM

COc1ccc2c(c1)-c1c(ssc1=S)C(C)(C)N2C(=O)c1cccc(Cl)c1
EC50 [1]: > 1250 nM | CC50 [2]: > 100000 nM | EC50 [3]: 1090 nM

Cc1nc(-c2ccc[n+](C)c2)sc1C(=O)C=Cc1ccc(Cl)cc1
EC50 [1]: 797 nM | CC50 [2]: 65200 nM | EC50 [3]: 341 nM

CCCOC(=O)CSc1nc(N)c(C#N)c(-c2ccco2)c1C#N
EC50 [1]: 1220 nM | CC50 [2]: > 100000 nM | EC50 [3]: 1890 nM

COc1ccc(S(=O)(=O)N2CCCCC2C(=O)NC(CN2CCCC2)c2ccccc2)cc1 (stereo not given)
EC50 [1]: 122 nM | CC50 [2]: > 10000 nM | EC50 [3]: 168 nM

C1=C(c2ccccc2)CCN(c2ncnc3c2nc2n3CCCCC2)C1
EC50 [1]: 1080 nM | CC50 [2]: > 85800 nM | EC50 [3]: 1290 nM

CCN(CC)CCCNCC(=O)N1c2ccccc2Sc2ccccc21
EC50 [1]: 1250 nM | CC50 [2]: > 100000 nM | EC50 [3]: > 12500 nM

Cc1ccc2nc(Nc3ncc4c(n3)CC(C)(C)CC4=O)nc(C)c2c1
EC50 [1]: 1250 nM | CC50 [2]: > 100000 nM | EC50 [3]: > 12500 nM

COc1ccc(Nc2nc(NCc3ccccc3)c3ccccc3n2)cc1
EC50 [1]: 106 nM | CC50 [2]: 8670 nM | EC50 [3]: 212 nM

COc1cc(C(=O)NC(c2cccs2)c2cc(Cl)c3cccnc3c2O)cc(OC)c1OC (stereo not given)
EC50 [1]: 1230 nM | CC50 [2]: > 100000 nM | EC50 [3]: 1490 nM

Cc1cc(C)c(S(=O)(=O)N2CCCC2CNC(=O)c2cccc([N+](=O)[O-])c2)c(C)c1 (stereo not given)
EC50 [1]: 1230 nM | CC50 [2]: > 100000 nM | EC50 [3]: 914 nM

O=[N+]([O-])c1cccc(C(Nc2nccs2)c2ccc3cccnc3c2O)c1 (stereo not given)
EC50 [1]: 198 nM | CC50 [2]: 16100 nM | EC50 [3]: 294 nM

CCCc1c2ccc(C)n2cc[n+]1CC(=O)c1ccc(OC)cc1
EC50 [1]: 1230 nM | CC50 [2]: > 100000 nM | EC50 [3]: 806 nM

COc1cccc(NC(=O)c2sc3ncn(CC(=O)N4CCN(c5ccccn5)CC4)c(=O)c3c2C)c1
EC50 [1]: 1240 nM | CC50 [2]: > 100000 nM | EC50 [3]: > 12500 nM

Cc1ccc2nc(C)cc(NCCN(C)C)c2c1
EC50 [1]: 709 nM | CC50 [2]: 59100 nM | EC50 [3]: 360 nM

Cc1cc2c(Nc3cccc(Cl)c3C)ncnc2s1
EC50 [1]: 1190 nM | CC50 [2]: > 100000 nM | EC50 [3]: 1910 nM

N#CC(=Cn1cc(Cc2ccc(Cl)cc2Cl)c2ccccc21)c1nn(CCO)c(N)c1C#N
EC50 [1]: 909 nM | CC50 [2]: 75000 nM | EC50 [3]: 629 nM

COc1cc(CN2CC3CC(C2)c2cccc(=O)n2C3)ccc1O (stereo not given)
EC50 [1]: 1210 nM | CC50 [2]: > 100000 nM | EC50 [3]: > 12500 nM

C(=NNc1nc2ccccc2[nH]1)c1ccccc1
EC50 [1]: 1190 nM | CC50 [2]: > 100000 nM | EC50 [3]: 587 nM

CCCSc1nc(N)c2c3c(sc2n1)CN(CCC)CC3
EC50 [1]: 1230 nM | CC50 [2]: > 100000 nM | EC50 [3]: 1420 nM

CCOC(=O)c1cnc2ccc(OC)cc2c1Cl
EC50 [1]: 1250 nM | CC50 [2]: > 100000 nM | EC50 [3]: 2760 nM

COc1ccc(OC)c(-c2ccc(O)c(CNCC3CCCCC3)c2)c1
EC50 [1]: 120 nM | CC50 [2]: > 10000 nM | EC50 [3]: 350 nM

CCOC(=O)C1CCN(C(=S)Nc2ccc3nsnc3c2)CC1
EC50 [1]: 370 nM | CC50 [2]: 30300 nM | EC50 [3]: 347 nM

COc1ccccc1C(NC(=O)c1cc(OC)c(OC)c(OC)c1)c1cc(Cl)c2cccnc2c1O (stereo not given)
EC50 [1]: 1230 nM | CC50 [2]: > 100000 nM | EC50 [3]: 2200 nM

CCOC(=O)c1ccc(NC(=O)c2ccc(S(=O)(=O)N3CC(C)CC(C)C3)cc2)cc1 (stereo not given)
EC50 [1]: 1240 nM | CC50 [2]: > 100000 nM | EC50 [3]: 666 nM

O=c1c2cnn(-c3ccccc3)c2nc(-c2ccccc2F)n1-c1ccc(Br)cc1
EC50 [1]: 1230 nM | CC50 [2]: > 100000 nM | EC50 [3]: 6790 nM

c1ccc(-c2nc3cc4nc(-c5ccccc5)[nH]c4cc3[nH]2)cc1
EC50 [1]: 1200 nM | CC50 [2]: > 100000 nM | EC50 [3]: 285 nM

COc1cccc(Cn2c(C)nc3cc(NC(=O)Nc4ccccc4)c(C)nc32)c1
EC50 [1]: 163 nM | CC50 [2]: > 13100 nM | EC50 [3]: > 443 nM

CN(CCCNc1ccnc2cc(Cl)ccc12)C(=O)c1ccc(C(C)(C)C)cc1
EC50 [1]: 46.5 nM | CC50 [2]: 3890 nM | EC50 [3]: 81.2 nM

O=C1c2ccccc2C2=Nc3ccccc3SC(c3ccccc3F)C12 (stereo not given)
EC50 [1]: 278 nM | CC50 [2]: 22900 nM | EC50 [3]: 209 nM

CCN1CCN(c2c(C(=O)c3ccccc3)cnc3cc(OC)c(OC)cc23)CC1
EC50 [1]: 1220 nM | CC50 [2]: > 100000 nM | EC50 [3]: 3020 nM

COc1ccc(-c2noc(N3CCc4ccccc4C3)n2)cc1
EC50 [1]: 125 nM | CC50 [2]: > 10000 nM | EC50 [3]: 200 nM
